What is called IC50 is the concentration that gives 50% inhibition. Read a high IC50 as lower potency.

Drawing on ChEMBL document CHEMBL1124047, “Acetohydroxamic acids as potent, selective, orally active 5-lipoxygenase inhibitors” (J Med Chem, 1988), this text covers IC50 for 3 compounds.

Experiment [1] deals with Cyclooxygenase (Homo sapiens, UniProt P35354+P23219). The experiment can be described thus: In vitro inhibition of Prostaglandin G/H synthase from human polymorphs. The experiment is classed as protein assay.
The target of experiment [2] is T1, Polyunsaturated fatty acid 5-lipoxygenase (Homo sapiens, UniProt P09917).
T1 sequence (P09917 whole entry): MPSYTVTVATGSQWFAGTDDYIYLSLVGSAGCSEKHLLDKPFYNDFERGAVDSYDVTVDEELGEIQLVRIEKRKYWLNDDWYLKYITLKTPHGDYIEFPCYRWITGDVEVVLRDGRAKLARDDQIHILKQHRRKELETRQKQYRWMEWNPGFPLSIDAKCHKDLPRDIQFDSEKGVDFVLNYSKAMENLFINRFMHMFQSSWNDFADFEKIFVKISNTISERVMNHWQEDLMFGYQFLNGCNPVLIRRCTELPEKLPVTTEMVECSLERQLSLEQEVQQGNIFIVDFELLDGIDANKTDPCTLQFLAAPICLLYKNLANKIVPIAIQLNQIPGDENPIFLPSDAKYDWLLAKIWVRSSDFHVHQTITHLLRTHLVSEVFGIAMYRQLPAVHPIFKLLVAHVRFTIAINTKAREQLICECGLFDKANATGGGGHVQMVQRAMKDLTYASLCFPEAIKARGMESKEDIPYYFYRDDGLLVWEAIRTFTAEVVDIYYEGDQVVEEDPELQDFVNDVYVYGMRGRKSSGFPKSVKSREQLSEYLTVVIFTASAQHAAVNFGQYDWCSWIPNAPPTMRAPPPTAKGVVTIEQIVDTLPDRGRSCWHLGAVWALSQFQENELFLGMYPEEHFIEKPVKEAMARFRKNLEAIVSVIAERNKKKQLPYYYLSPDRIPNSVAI
The experiment can be described thus: In vitro inhibition of 5-lipoxygenase from human polymorphs.

The compound `CC(=O)N(O)C/C=C/c1cccc(Oc2ccccc2)c1` gave an IC50 in experiment [1] of 3200 nM.
For the compound `CC(=O)N(O)Cc1ccc(OCc2ccccc2)cc1`, the IC50 was 770 nM in experiment [2] and 22000 nM in experiment [1].
Taken in the same sequence, the figures for `CN(O)C(=O)/C=C/c1cccc(Oc2ccccc2)c1` were 50 nM and 5000 nM.
